{
  "source": "BindingDB's records for doi:10.1021/acsmedchemlett.0c00432",
  "about": "(Vanderbilt University, 2020)",
  "molecular_target": "Metabotropic glutamate receptor 7 (Rattus norvegicus, UniProt P35400)",
  "sequence (P35400 whole entry)": "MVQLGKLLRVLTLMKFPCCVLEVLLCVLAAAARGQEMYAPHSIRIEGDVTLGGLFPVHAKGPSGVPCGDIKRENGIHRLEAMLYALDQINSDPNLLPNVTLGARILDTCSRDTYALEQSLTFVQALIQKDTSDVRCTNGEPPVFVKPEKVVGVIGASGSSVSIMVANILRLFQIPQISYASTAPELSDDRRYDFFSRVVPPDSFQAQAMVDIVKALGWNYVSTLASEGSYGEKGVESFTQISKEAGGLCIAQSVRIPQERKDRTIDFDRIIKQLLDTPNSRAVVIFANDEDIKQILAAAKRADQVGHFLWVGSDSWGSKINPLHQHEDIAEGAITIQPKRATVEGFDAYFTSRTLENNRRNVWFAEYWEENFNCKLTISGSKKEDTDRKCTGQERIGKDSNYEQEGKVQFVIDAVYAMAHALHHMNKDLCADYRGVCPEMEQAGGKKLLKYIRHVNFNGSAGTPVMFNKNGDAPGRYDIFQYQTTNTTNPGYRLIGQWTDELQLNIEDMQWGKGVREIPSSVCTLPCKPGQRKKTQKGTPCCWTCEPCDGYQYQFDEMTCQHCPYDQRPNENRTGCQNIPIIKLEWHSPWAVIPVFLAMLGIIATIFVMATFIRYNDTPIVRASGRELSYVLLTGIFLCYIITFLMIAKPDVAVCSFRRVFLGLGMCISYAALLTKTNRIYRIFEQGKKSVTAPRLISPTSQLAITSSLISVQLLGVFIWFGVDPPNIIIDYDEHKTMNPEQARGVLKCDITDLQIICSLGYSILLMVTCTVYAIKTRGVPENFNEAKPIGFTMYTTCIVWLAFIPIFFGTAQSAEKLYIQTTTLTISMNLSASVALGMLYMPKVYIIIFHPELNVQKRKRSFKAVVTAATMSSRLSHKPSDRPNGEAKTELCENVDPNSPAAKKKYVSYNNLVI",
  "assay": "Positive allosteric modulation of rat mGlu7 receptor expressed in HEK293 cells co-expressing Gai5 assessed as potentiation of L-AP4-induced calcium mobilization preincubated for 140 secs and treated with EC20 L-AP4 for 125 secs and followed by subsequent addition of EC80 L-AP4 by Fluo-4-AM dye based fluorescence assay",
  "data": [
    {"smiles": "N#Cc1cnc2c(OC3CCOC3)cccc2c1N1CCN(c2ccccc2F)CC1", "note": "(stereo unspecified)", "values": [
      {"measurement": "EC50", "value": 1540, "unit": "nM"}
    ]}
  ]
}
